The values below come from EP0638566B1, “5-Aminoflavone derivatives, their preparation and their use as antibacterial, anti-estrogenic and/or antitumor agent” (KYOWA HAKKO KOGYO CO., LTD., priority 1993, dated 1995).

Values after ≈ are worked out from the molar mass of the structure shown. Where a name gives a salt, the structure may show the parent alone. Read-outs that look alike come from different tables or passages of the source.

Assay [1] concerns Human mammary cancer MCF-7 cell. As to the kind of experiment: Human mammary cancer MCF-7 cell growth inhibition test (neutral red). It counts as cell-based. The protocol: Human mammary cancer MCF-7 cell growth inhibition test
Each 0.1 ml of MCF-7 cells which had been prepared to 5 x 10^4/ml using a medium (referred to as Medium B hereinafter) prepared by adding 10% bovine fetal serum, 10^-8M estradiol (manufactured by Sigma), 100 units/ml penicillin and 100 µg/ml streptomycin to RPMI1640 medium was distributed in each well of 96 well-microtiter plate. […] Supernatant was removed, each 0.1 ml of Medium B containing 0.02% neutral red was added to the residue, the mixture was cultured at 37 °C for 1 hour in a CO2 gas incubator and the cells were stained by neutral red dye. Supernatant was removed and the residue was washed once with a physiological saline. Then, the dye was extracted with 0.001N hydrochloric acid/30% ethanol and the absorbance at 550 nm was determined with a microplatereader.

Assay [2] relates to estrogen-dependent human mammary cancer MCF-7. Briefly: Antitumor effects against MCF-7 tumor transplanted in nude mice. It counts as in vivo, female BALB/c-nu/nu mice. The note with it: Mus musculus, MCF7, 5 days per week for two weeks, read-out: T/C; for response vs control in vivo at 50 mg/kg: dose 50 mg/kg oral. The source says: Antitumor effects against estrogen-dependent human mammary cancer MCF-7
The tumor fragment (2mm x 2mm x 2mm) of human hormone dependent mammary cancer MCF-7 was transplanted subcutaneously in the flank of female BALB/c-nu/nu mice (Nihon Crea), 7 to 9 weeks age. […] 3 to 4 Weeks after transplantation, mice of the tumor volume of 25 to 200 mm^3 were selected, and the test compounds were orally administered repeatedly to the groups (5 animals per group) for 5 days per a week, for total two weeks. In addition, estradiol propionate was administered again on the date of initial administration of the test compounds. Length and width of the tumor were determined every day, and the tumor volumes were calculated by means of ellipsoid approximation according to the following equation: […] [formula] The tumor volume at initial administration (Vo) and on the day of judgement (V) was calculated, and the tumor growth rate (V/Vo) was calculated. T/C value was obtained as the ratio of V/Vo value of treated group relative to that of control group.

The next assay concerns Bacillus subtilis #10107. As to the kind of experiment: Antibacterial activity, agar dilution method. Format: cell-based. As to the method:
Antibacterial activity of compound (I) against Bacillus subtilis #10107 [Minimum Inhibition Concentration(MIC; µg/ml)] is shown in Table 6. Minimum Inhibition Concentration was determined by agar dilution method at pH 7.0.
(In general: In agar dilution, organisms are placed on agar that contains the substance at set levels.)

In assay [3] the test system is estrogen-dependent human mammary cancer Br-10. Briefly: Antitumor effects against Br-10 tumor transplanted in nude mice. It counts as in vivo, female BALB/c-nu/nu mice. The note with it: 5 days per week for two to four weeks, judgement day 18. The source says:
Antitumor effects against estrogen-dependent human mammary cancer Br-10
The tumor fragment (2mm x 2mm x 2mm) of human hormone dependent mammary cancer Br-10 was transplanted subcutaneously in the flank of female BALB/c-nu/nu mice (Nihon Crea), 7 to 9 weeks age. […] 3 to 4 Weeks after transplantation, mice the tumor volume of which increased to 30 to 150 mm^3 were selected, and the test compounds were orally administered repeatedly to the groups (5 animals per group) for 5 days per a week, for total two to four weeks. Estradiol propionate was additionally administered on the date of initial administration of the test compounds and 14 days after the administration. Length and breadth of the tumor were determined every day, and the tumor volumes were calculated by means of ellipsoid approximation according to the above equation. The tumor volume at initial administration (Vo) and on the day of judgement (V) was calculated, and the tumor growth rate (V/Vo) was calculated. T/C value was obtained as the ratio of V/Vo value of treated group relative to that of control group.

The mark [4] stands for this setting: MCF7, MCF-7 cells, medium with 10^-8M estradiol, 72 hours, neutral red, absorbance at 550 nm, read-out: IC50.
Where [5] appears, read: Minimum Inhibition Concentration, agar dilution method at pH 7.0, read-out: MIC.

By IC50 is commonly meant the concentration that gives 50% inhibition. Regarding `CCc1c(F)c(N)c2c(=O)cc(-c3ccc(N)c(F)c3)oc2c1F` [Compound 2, 5-Amino-2-(4-amino-3-fluorophenyl)-7-ethyl-6,8-difluoro-4H-1-benzopyran-4-one], the IC50 in assay [1] (setting [4]) is 130 nM.

`Nc1ccc(-c2cc(=O)c3c(N)c(F)c(Cl)c(F)c3o2)cc1F` [Compound 5, 5-Amino-2-(4-amino-3-fluorophenyl)-7-chloro-6,8-difluoro-4H-1-benzopyran-4-one]: the IC50 in assay [1] (setting [4]) turned out to be 210 nM.

`Nc1ccc(-c2cc(=O)c3c(N)c(F)c(Br)c(F)c3o2)cc1F` [Compound 6, 5-Amino-2-(4-amino-3-fluorophenyl)-7-bromo-6,8-difluoro-4H-1-benzopyran-4-one]: the IC50 in assay [1] (setting [4]) stood at 160 nM. For the same molecule, the response vs control in vivo at 50 mg/kg in assay [2] (judgement day 21) was 54%.

`COc1c(F)c(N)c2c(=O)cc(-c3ccc(N)c(F)c3)oc2c1F` [Compound 8, 5-Amino-2-(4-amino-3-fluorophenyl)-6,8-difluoro-7-methoxy-4H-1-benzopyran-4-one] gave an IC50 in assay [1] (MCF7, 72 h) of 100 nM.

What is called MIC is the lowest concentration that inhibits growth of the organism. For `CN(C)CCOc1c(F)c(N)c2c(=O)cc(-c3ccc(N)c(F)c3)oc2c1F` [Compound 9, 5-Amino-2-(4-amino-3-fluorophenyl)-7-(2-dimethylaminoethoxy)-6,8-difluoro-4H-1-benzopyran-4-one], the IC50 in assay [1] (MCF7, 72 h) came to 1400 nM. Besides, the response vs control in vivo at 50 mg/kg in assay [2] (judgement day 15) was found to be 42%. This molecule registered an MIC in the assay with Bacillus subtilis #10107 (pH 7) of 52.1 µg/mL (≈ 132 µM).

In turn, `CSc1c(F)c(N)c2c(=O)cc(-c3ccc(N)c(F)c3)oc2c1F` [Compound 10, 5-Amino-2-(4-amino-3-fluorophenyl)-6,8-difluoro-7-methylthio-4H-1-benzopyran-4-one] showed an IC50 in assay [1] (MCF7, 72 h) of 190 nM.

With `C[S+]([O-])c1c(F)c(N)c2c(=O)cc(-c3ccc(N)c(F)c3)oc2c1F` (centres unmarked) [Compound 11, 5-Amino-2-(4-amino-3-fluorophenyl)-6,8-difluoro-7-methylsulfinyl-4H-1-benzopyran-4-one], in assay [1] (setting [4]), the IC50 came out at 2500 nM.

Consider `CCOC(=O)c1c(F)c(N)c2c(=O)cc(-c3ccc(N)c(F)c3)oc2c1F` [Compound 13, 5-Amino-2-(4-amino-3-fluorophenyl)-7-ethoxycarbonyl-6,8-difluoro-4H-1-benzopyran-4-one], for which the IC50 in assay [1] (setting [4]) is 1400 nM.

`Nc1ccc(-c2cc(=O)c3c(N)c(F)c(N)c(F)c3o2)cc1F` [Compound 16, 5,7-Diamino-2-(4-amino-3-fluorophenyl)-6,8-difluoro-4H-1-benzopyran-4-one] returned a T/C in assay [3] (dose 12.5 mg/kg oral) of 0.24. Moreover, the IC50 in assay [1] (MCF7, 72 h) is 7.7 nM. For the same molecule, in assay [2] (dose 12.5 mg/kg oral, judgement day 22), the response vs control in vivo at 12.5 mg/kg came to 18%.

In assay [3] (dose 25 mg/kg oral), `CN(C)c1c(F)c(N)c2c(=O)cc(-c3ccc(N)c(F)c3)oc2c1F` [Compound 17, 5-Amino-2-(4-amino-3-fluorophenyl)-7-dimethylamino-6,8-difluoro-4H-1-benzopyran-4-one] gave a T/C of 0.22. For the same molecule, the IC50 in assay [1] (setting [4]) was 39 nM.

Regarding `CN(C)CCCNc1c(F)c(N)c2c(=O)cc(-c3ccc(N)c(F)c3)oc2c1F` [Compound 18, 5-Amino-2-(4-amino-3-fluorophenyl)-7-[3-(dimethylamino)propylamino]-6,8-difluoro-4H-1-benzopyran-4-one], in the assay with Bacillus subtilis #10107 (setting [5]), the MIC is 52.1 µg/mL (≈ 128 µM).

`CC(=O)c1c(F)c(N)c2c(=O)cc(-c3ccc(N)c(F)c3)oc2c1F` [Compound 22, 7-Acetyl-5-amino-2-(4-amino-3-fluorophenyl)-6,8-difluoro-4H-1-benzopyran-4-one]: the MIC in the assay on Bacillus subtilis #10107 (setting [5]) turned out to be 13 µg/mL (≈ 37.3 µM).

For `Cc1c(F)c(N)c2c(=O)cc(-c3ccc(N)c(Cl)c3)oc2c1F` [Compound 24, 5-Amino-2-(4-amino-3-chlorophenyl)-6,8-difluoro-7-methyl-4H-1-benzopyran-4-one], in assay [1] (setting [4]), the IC50 is 92 nM.

Take `CCc1cc(-c2cc(=O)c3c(N)c(F)c(C)c(F)c3o2)ccc1N` [Compound 26, 5-Amino-2-(4-amino-3-ethylphenyl)-6,8-difluoro-7-methyl-4H-1-benzopyran-4-one]: the IC50 in assay [1] (setting [4]) came out at 65 nM.

For the molecule `Nc1ccc(-c2cc(=O)c3c(N)c(F)c(F)c(F)c3o2)cc1F` [Compound 34, 5-Amino-2-(4-amino-3-fluorophenyl)-6,7,8-trifluoro-4H-1-benzopyran-4-one], the IC50 in assay [1] (setting [4]) was found to be 220 nM.

As to `Cc1c(F)c(NCCCN(C)C)c2c(=O)cc(-c3ccc(N)c(F)c3)oc2c1F` [Compound 37, 2-(4-Amino-3-fluorophenyl)-5-[3-(dimethylamino)propylamino]-6,8-difluoro-7-methyl-4H-1-benzopyran-4-one], the MIC in the assay on Bacillus subtilis #10107 (setting [5]) was found to be 13 µg/mL (≈ 32.1 µM).

With `CCN(CC)CCCNc1c(F)c(C)c(F)c2oc(-c3ccc(N)c(F)c3)cc(=O)c12` [Compound 38, 2-(4-Amino-3-fluorophenyl)-5-[3-(diethylamino)propylamino]-6,8-difluoro-7-methyl-4H-1-benzopyran-4-one], the MIC in the assay on Bacillus subtilis #10107 (setting [5]) was determined as 13 µg/mL (≈ 30 µM).

Take `Nc1ccc(-c2cc(=O)c3c(N)c(F)c(CO)c(F)c3o2)cc1F` [Compound 39, 5-Amino-2-(4-amino-3-fluorophenyl)-6,8-difluoro-7-hydroxymethyl-4H-1-benzopyran-4-one]: in assay [1] (MCF7, 72 h), the IC50 came to 62 nM. For the same molecule, the response vs control in vivo at 50 mg/kg in assay [2] (judgement day 14) was found to be 1.6%.

`NCc1c(F)c(N)c2c(=O)cc(-c3ccc(N)c(F)c3)oc2c1F` [Compound 41, 5-Amino-2-(4-amino-3-fluorophenyl)-7-aminomethyl-6,8-difluoro-4H-1-benzopyran-4-one] came in with an IC50 in assay [1] (MCF7, 72 h) of 26 nM. Moreover, the response vs control in vivo at 50 mg/kg in assay [2] (judgement day 18) was found to be 1.1%. In the assay with Bacillus subtilis #10107 (pH 7), this molecule had an MIC of 3.26 µg/mL (≈ 9.72 µM).

In assay [1] (MCF7, 72 h), `CN(C)Cc1c(F)c(N)c2c(=O)cc(-c3ccc(N)c(F)c3)oc2c1F` [Compound 42, Hydrochloride of 5-amino-2-(4-amino-3-fluorophenyl)-7-dimethylaminomethyl-6,8-difluoro-4H-1-benzopyran-4-one] yielded an IC50 of 72 nM.

As to `COCc1c(F)c(N)c2c(=O)cc(-c3ccc(N)c(F)c3)oc2c1F` [Compound 43, 5-Amino-2-(4-amino-3-fluorophenyl)-6,8-difluoro-7-methoxymethyl-4H-1-benzopyran-4-one], in assay [1] (setting [4]), the IC50 is 46 nM.

Consider `CC(=O)OCc1c(F)c(N)c2c(=O)cc(-c3ccc(N)c(F)c3)oc2c1F` [Compound 44, 7-Acetoxymethyl-5-amino-2-(4-amino-3-fluorophenyl)-6,8-difluoro-4H-1-benzopyran-4-one], for which the IC50 in assay [1] (MCF7, 72 h) is 26 nM. The response vs control in vivo at 25 mg/kg in assay [2] (dose 25 mg/kg oral, judgement day 14) is 6.1%.
